Reference: patent US20190367449A1, “PHENYLCREATINE, ITS USE AND METHOD FOR ITS PRODUCTION” (priority 2017, published 2019)

Tests used:
untrained subjects = details: creatine in combination with carbohydrates, 5 days before and 14 days after training; cited from earlier work
[1] = system: children and adults with craniocerebral trauma (CCT); details: six months, 400 mg/kg of body weight, cited from earlier work
male Wistar rats = assay: Nootropic action in a shuttle maze, old rats; type: in vivo; details: old rats 25 months
Description: The experiments were performed on male Wistar rats born in September 2014 (experiments were conducted in November 2016). The animals were kept in standard plastic cells at an air temperature of 21-23° C. They received a balanced granular food and drinking water without restrictions. The work was carried out in compliance with the principles of the Helsinki Declaration on Humane Treatment of Animals.
Rats were divided into 2 groups. The rats of the first test group received 10 mg of phenylcreatine per animal daily for a month with drinking water. The rats of the second test group received water. As a control in the experiment, rats born in May 2016 (the third group, young rats) were used.
In the experiment, a shuttle maze was used to evaluate neuropsychiatric processes, primarily cognitive processes (Navakatikyan M A, Platonov L L, 1988). At the end of the labyrinth there was a food reinforcement (a piece of cheese with a mass of 200 mg).
The time of the experiment to find the exit from the labyrinth was 5 minutes. During the experiment, the time of passing the labyrinth, the number of rats reaching the end of the labyrinth, the number of vertical racks were recorded.

| SMILES | Isokinetic muscle strength, greater than with carbohydrates only (untrained subjects) | Isometric muscle strength, greater than with carbohydrates only (untrained subjects) | Frequency of fatigue ([1]; reduced from 82.4%) | Frequency of dizziness ([1]; reduced from 88.9 percent) | Frequency of headaches ([1]; reduced from 93.8%) | Number of vertical rearings per minute (male Wistar rats; 10 mg per animal daily for a month with drinking water, untreated old rats 2±0.56) | The transit time of the labyrinth (male Wistar rats; 10 mg per animal daily for a month, untreated old rats 5±0.42) | The number of rats reaching the end of the labyrinth in 5 minutes (male Wistar rats; 10 mg per animal daily for a month, untreated old rats 10%) |
| --- | --- | --- | --- | --- | --- | --- | --- | --- |
| CN(CC(=O)O)C(=N)N [creatine, 2-(methylguanine)-ethane acid] | 10% | 21% | 11.1% | 43.8% | 11.1% |  |  |  |
| N=C(N)N(CC(=O)O)Cc1ccccc1 [phenylcreatine, N-benzyl-N-carbamimidoylglycine] |  |  |  |  |  | 1.2±0.44 | 2 ± 0.22 min | 50% |
